{
  "source": "patent US20160143861A1",
  "about": "“COMPOSITIONS COMPRISING HYDROXYTYROSOL, RESVERATROL, LYCOPENE, FLAVANOLS, AND/OR FLAVONOIDS AND USE THEREOF” (SPECIALTY NUTRITION GROUP, INC., priority 2013, published 2016)",
  "origin": "cited, not measured here",
  "data": [
    {"smiles": "OCCc1ccc(O)c(O)c1", "note": "[Hydroxytyrosol]", "values": [
      {"measurement": "time of peak plasma concentration after ingestion", "value": "5 to 10", "unit": "min"}
    ]}
  ]
}
